From PMC12443593, “A live bacteria enzyme assay for identification of human disease mutations and drug screening” (Nature Biomedical Engineering, 2025) come the findings set out here.

A word on the IC50: it is the point on the concentration scale where inhibition reaches its midpoint.

The target of the assay is T1, human G6PD (glucose-6-phosphate dehydrogenase) (Homo sapiens, UniProt P11413).
T1 construct: functional as dimer or tetramer
Briefly: growth rate of humanized E. coli (LEICA), Hill fit. The class given is cell-based. To be noted: live E. coli Δpgi Δzwf expressing human G6PD, M9 glucose, 37 °C, 1% DMSO; growth read-out, no effect on E. coli Δpgi.

T1 sequence (P11413 2-515): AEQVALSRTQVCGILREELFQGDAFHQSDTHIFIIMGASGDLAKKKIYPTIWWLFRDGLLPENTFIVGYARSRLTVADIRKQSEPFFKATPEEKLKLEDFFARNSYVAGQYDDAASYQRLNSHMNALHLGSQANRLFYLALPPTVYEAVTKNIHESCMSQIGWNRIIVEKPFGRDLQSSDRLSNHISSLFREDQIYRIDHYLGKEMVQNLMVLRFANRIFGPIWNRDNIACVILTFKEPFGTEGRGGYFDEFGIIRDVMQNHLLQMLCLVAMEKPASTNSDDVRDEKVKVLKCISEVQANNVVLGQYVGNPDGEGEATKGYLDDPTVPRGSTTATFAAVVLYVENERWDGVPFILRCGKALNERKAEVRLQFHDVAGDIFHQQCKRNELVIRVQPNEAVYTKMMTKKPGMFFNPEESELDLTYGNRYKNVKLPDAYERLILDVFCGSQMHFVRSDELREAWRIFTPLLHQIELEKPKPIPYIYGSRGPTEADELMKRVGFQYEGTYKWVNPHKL

As to `N#Cc1cc(Nc2ncc3c(n2)CCCCC3=O)cs1` [G6PDi-1], the IC50 is given as 111 µM.
